The record followed here is ChEMBL document CHEMBL5725283, “2-pyridinecarboxamide derivatives, compositions containing such compounds, and methods of treatment” (2016).

The assay is described as follows: Glucokinase Activity Assay: Recombinant human liver glucokinase was expressed as a FLAG fusion protein in E. coli, and purified on ANTIFLAG M2 AFFINITY GEL (Sigma). The assay was carried out at 30° C. in a 96-well plate. In the plate was distributed 69 μl each of assay buffer (25 mM Hepes Buffer: pH=7.2, 2 mM MgCl2, 1 mM ATP, 0.5 mM TNAD, 1 mM dithiothreitol), to which was added 1 μl of a DMSO solution of the compound or DMSO as control. Then, 20 μl of pre-ice-cooled enzyme mixture (FLAG-GK, 20 U/ml G6PDH) was distributed thereto, to which was added 10 μl of 25 mM glucose as substrate to initiate the reaction (final glucose concentration=2.5 mM). After starting the reaction, the absorbance at 405 nm was measured every 30 seconds for 10 minutes to evaluate the compound based on the initial increase for 5 minutes. FLAG-GK was added so that the increase of absorbance after 5 minutes fell between 0.05 to 0.1 in the presence of 1% DMSO.
As for `CCOC(=O)CSc1cnc(NC(=O)c2nc(Sc3nncn3C)ccc2Sc2ccc(F)cc2)s1`, the EC50 turned out to be 13.4 nM. `CCOC(=O)Cc1csc(NC(=O)c2nc(Sc3nncn3C)ccc2Sc2ccc(F)cc2)n1`: the EC50 came to 49.3 nM. As to `Cn1cnnc1Sc1ccc(Sc2ccc(F)cc2)c(C(=O)Nc2nc(CC(=O)O)cs2)n1`, the EC50 was 137 nM.

What is called EC50 is the concentration needed to bring the measured effect to its halfway point.
